pEC50: −log10 of the molar value. Read-outs that look alike come from different tables or passages of the source.
Biological target: T1, human M2 receptor (Homo sapiens, UniProt P08172)
T1 sequence (P08172 1-466): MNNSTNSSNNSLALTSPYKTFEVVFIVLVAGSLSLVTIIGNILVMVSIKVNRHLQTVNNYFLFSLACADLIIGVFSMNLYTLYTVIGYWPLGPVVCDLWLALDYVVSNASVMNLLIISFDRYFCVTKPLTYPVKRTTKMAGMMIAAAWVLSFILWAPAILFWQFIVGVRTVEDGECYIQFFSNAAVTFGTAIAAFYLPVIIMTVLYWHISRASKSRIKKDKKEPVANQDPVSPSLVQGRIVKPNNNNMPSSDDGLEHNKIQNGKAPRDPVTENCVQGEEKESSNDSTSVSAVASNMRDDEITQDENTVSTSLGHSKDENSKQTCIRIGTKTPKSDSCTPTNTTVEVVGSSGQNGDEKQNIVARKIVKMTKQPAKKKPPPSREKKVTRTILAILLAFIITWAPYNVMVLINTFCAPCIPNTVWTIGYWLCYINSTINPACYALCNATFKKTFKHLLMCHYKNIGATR
Settings: for Emax: read-out: Efficiency, boosting of the acetylcholine effect at EC20 acetylcholine concentration

[1] = Receptor activity EC50, M2-GIRK1/4 activation test, acetylcholine at EC20, allosteric potency, in some cases mean values from two or more determinations
[2] = Receptor activity EC50, allosteric potency at EC20 acetylcholine, M2-GIRK1/4 reporter cells, in some cases mean of two or more determinations

| SMILES | pEC50 [1] | pEC50 [2] | Emax (M2-GIRK1/4 reporter cells) | Efficiency (boosting of the acetylcholine effect at EC20 acetylcholine concentration, M2-GIRK1/4 reporter cells) |
| --- | --- | --- | --- | --- |
| CN(C)c1ccc2c(=O)c(C(=O)NC(C)(C)C)cn(-c3ccc(F)cc3F)c2n1 [Example 43, N-tery-Butyl-1-(2,4-difluorophenyl)-7-(dimethylamino)-4-oxo-1,4-dihydro-1,8-naphthyridine-3-carboxamide] | 6.85 | – | – | – |
| O=C(NC(c1cccc(Cl)c1)C(F)(F)F)c1cn(-c2ccc(F)cc2F)c2nc(N3C[C@@H](O)CC3=O)ccc2c1=O (mixture of isomers) [Example 274, N-[1-(3-Chlorophenyl)-2,2,2-trifluoroethyl]-1-(2,4-difluorophenyl)-7-[(4S)-4-hydroxy-2-oxopyrrolidin-1-yl]-4-oxo-1,4-dihydro-1,8-naphthyridine-3-carboxamide] | 7.31 | – | – | – |
| CC[C@@H](NC(=O)c1cn(-c2ccc(F)cc2F)c2nc(N3CC(C)(OC)C3)ccc2c1=O)C(F)(F)F [Example 328, 1-(2,4-Difluorophenyl)-7-(3-methoxy-3-methyazetidin-1-yl)-4-oxo-N-[(2R)-1,1,1-trifluorobutan-2-yl]-1,4-dihydro-1,8-naphthyridine-3-carboxamide] | 7.10 | – | – | – |
| O=C(N[C@@H](C1CC1)C(F)(F)F)c1cn(-c2c(F)cc(F)cc2F)c2nc(N3CC4(COC4)C3)ccc2c1=O [Example 492] | – | 7.36 | 97.5% | – |
| CC(C)(CC(F)(F)F)NC(=O)c1cn(-c2c(F)cc(F)cc2F)c2nc(N3CCCN(CCO)C3=O)ccc2c1=O [Example 383, 7-[3-(2-Hydroxyethyl)-2-oxotetrahydropyrimidin-1(2H)-yl]-4-oxo-N-(4,4,4-trifluoro-2-methylbutan-2-yl)-1-(2,4,6-trifluorophenyl)-1,4-dihydro-1,8-naphthyridine-3-carboxamide] | 7.74 | – | – | – |
| CC(NC(=O)c1cn(-c2ccc(F)cc2F)c2nc(N3C[C@@H](O)CC3=O)ccc2c1=O)c1ccccc1F (stereo partly drawn) [Example 235, 1-(2,4-Difluorophenyl)-N-[1-(2-fluorophenyl)ethyl]-7-[(4S)-4-hydroxy-2-oxopyrrolidin-1-yl]-4-oxo-1,4-dihydro-1,8-naphthyridine-3-carboxamide] | 6.68 | – | – | – |
| O=C(NC(c1ccccc1Cl)C(F)(F)F)c1cn(-c2c(F)cc(F)cc2F)c2nc(N3C[C@@H](O)CC3=O)ccc2c1=O (single isomer, unassigned) [Example 534] | – | 8.22 | – | 100.0% |
| CC[C@@H](NC(=O)c1cn(-c2c(Cl)cccc2Cl)c2nc(N3CC4CC4(O)C3)ccc2c1=O)C(F)(F)F (stereo partly drawn) [Example 652, 1-(2,6-Dichlorophenyl)-7-[1-hydroxy-3-azabicyclo[3.1.0]hex-3-yl]-4-oxo-N-[(2R)-1,1,1-trifluorobutan-2-yl]-1,4-dihydro-1,8-naphthyridine-3-carboxamide] | – | 7.05 | 80% | – |
| O=C(NC12CC(C1)C2)c1cn(-c2c(F)cc(F)cc2F)c2nc(N3CC(O)C4(CC4)C3)ccc2c1=O (single isomer, unassigned) [Example 627, N-(Bicyclo[1.1.1]pent-1-yl)-7-[7-hydroxy-5-azaspiro[2.4]hept-5-yl]-4-oxo-1-(2,4,6-trifluorophenyl)-1,4-dihydro-1,8-naphthyridine-3-carboxamide] | – | 6.85 | 83.5% | – |
| CN(C)c1ccc2c(=O)c(C(=O)NC(C(F)(F)F)C(F)(F)F)cn(-c3ccc(F)cc3F)c2n1 [Example 149, 1-(2,4-Difluorophenyl)-7-(dimethylamino)-N-(1,1,1,3,3,3-hexafluoropropan-2-yl)-4-oxo-1,4-dihydro-1,8-naphthyridine-3-carboxamide] | 7.07 | – | – | – |
| CC[C@@H](NC(=O)c1cn(-c2c(F)cccc2Cl)c2nc(N3CC[C@@H](O)C3=O)ccc2c1=O)C(F)(F)F [Example 308, 1-(2-Chloro-6-fluorophenyl)-7-[(3R)-3-hydroxy-2-oxopyrrolidin-1-yl]-4-oxo-N-[(2R)-1,1,1-trifluorobutan-2-yl]-1,4-dihydro-1,8-naphthyridine-3-carboxamide] | 7.52 | – | – | – |
| CC(C)(NC(=O)c1cn(-c2ccc(F)cc2F)c2nc(N3CCCS3(=O)=O)ccc2c1=O)c1c(F)cccc1F [compound 185] | 6.81 | – | – | – |
| O=C(NC(c1c(F)cccc1F)C(F)(F)F)c1cn(-c2ccc(F)cc2F)c2nc(N3CCC(O)CC3=O)ccc2c1=O (single isomer, unassigned) [Example 254, 1-(2,4-Difluorophenyl)-N-[1-(2,6-difluorophenyl)-2,2,2-trifluoroethyl]-7-[4-hydroxy-2-oxopiperidin-1-yl]-4-oxo-1,4-dihydro-1,8-naphthyridine-3-carboxamide] | 6.47 | – | – | – |
| CC(C)(CC(F)(F)F)NC(=O)c1cn(-c2c(F)cc(F)cc2Cl)c2nc(N3C[C@@H](O)[C@H](O)C3)ccc2c1=O [Example 391, 1-(2-Chloro-4,6-difluorophenyl)-7-[(3R,4R)-3,4-dihydroxypyrrolidin-1-yl]-4-oxo-N-(4,4,4-trifluoro-2-methylbutan-2-yl)-1,4-dihydro-1,8-naphthyridine-3-carboxamide] | 8.10 | – | – | – |
| CC[C@@H](NC(=O)c1cn(-c2ccc(F)cc2F)c2nc(N3CC(C)OC3=O)ccc2c1=O)C(F)(F)F (mixture of isomers) [Example 266, 1-(2,4-Difluorophenyl)-7-[5-methyl-2-oxo-1,3-oxazolidin-3-yl]-4-oxo-N-[(2R)-1,1,1-trifluorobutan-2-yl]-1,4-dihydro-1,8-naphthyridine-3-carboxamide] | 6.13 | – | – | – |
| CC(C)C[C@@H](NC(=O)c1cn(-c2ccc(F)cc2F)c2nc(N(C)C)ccc2c1=O)C(F)(F)F [Example 133, 1-(2,4-Difluorophenyl)-7-(dimethylamino)-4-oxo-N-[(2R)-1,1,1-trifluoro-4-methylpentan-2-yl]-1,4-dihydro-1,8-naphthyridine-3-carboxamide] | 7.72 | – | – | – |
| CC(C)[C@@H](C)NC(=O)c1cn(-c2c(F)cc(F)cc2F)c2nc(N3C[C@@H](O)[C@H](O)C3)ccc2c1=O [Example 483, 7-[(3R,4R)-3,4-Dihydroxypyrrolidin-1-yl]-N-[(2R)-3-methylbutan-2-yl]-4-oxo-1-(2,4,6-trifluorophenyl)-1,4-dihydro-1,8-naphthyridine-3-carboxamide] | – | 7.27 | 92.5% | – |
| C[C@@H](NC(=O)c1cn(-c2c(F)cc(F)cc2F)c2nc(N3C[C@@H](O)CC3=O)ccc2c1=O)C1CC1 [Example 480, N-[(1R)-1-Cyclopropylethyl]-7-[(4S)-4-hydroxy-2-oxopyrrolidin-1-yl]-4-oxo-1-(2,4,6-trifluorophenyl)-1,4-dihydro-1,8-naphthyridine-3-carboxamide] | – | 7.34 | 100% | – |
| CC(C)(CC(F)(F)F)NC(=O)c1cn(-c2c(F)cc(F)cc2Cl)c2nc(N3C[C@@H](O)[C@H](O)C3)ccc2c1=O (single isomer, unassigned) [Example 392] | 8.22 | – | – | – |
| O=C(NC12CC3CC(CC(C3)C1)C2)c1cn(-c2ccc(F)cc2F)c2nc(N3CCCCC3)ccc2c1=O [Example 8, 1-(2,4-Difluorophenyl)-4-oxo-7-(piperidin-1-yl)-N-(tricyclo[3.3.1.1^3,7]dec-1-yl)-1,4-dihydro-1,8-naphthyridine-3-carboxamide] | 7.42 | – | – | – |
| O=C(N[C@@H](C1CC1)C(F)(F)F)c1cn(-c2c(F)cc(F)cc2F)c2nc(N3CC(O)C3)ccc2c1=O [Example 662, N-[(1S)-1-Cyclopropyl-2,2,2-trifluoroethyl]-7-(3-hydroxyazetidin-1-yl)-4-oxo-1-(2,4,6-trifluorophenyl)-1,4-dihydro-1,8-naphthyridine-3-carboxamide] | – | 7.42 | 100% | – |
| CC[C@H](NC(=O)c1cn(-c2c(F)cc(F)cc2F)c2nc(N3CC(F)C3)ccc2c1=O)C(F)(F)F [Example 501] | – | 7.24 | 98% | – |
| CC(NC(=O)c1cn(-c2c(F)cc(F)cc2F)c2nc(N3C[C@@H](O)[C@H](O)C3)ccc2c1=O)(C1CC1)C(F)(F)F (single isomer, unassigned) [Example 442] | – | 8.00 | 100% | – |
| CN(C)c1ccc2c(=O)c(C(=O)NC34CCC(F)(CC3)CC4)cn(-c3ccc(F)cc3F)c2n1 [Example 47, 1-(2,4-Difluorophenyl)-7-(dimethylamino)-N-(4-fluorobicyclo[2.2.2]oct-1-yl)-4-oxo-1,4-dihydro-1,8-naphthyridine-3-carboxamide] | 7.37 | – | – | – |
| CCC(COC(F)(F)F)NC(=O)c1cn(-c2c(F)cc(F)cc2F)c2nc(N3C[C@@H](O)[C@H](O)C3)ccc2c1=O (mixture of isomers) [Example 576, 7-[(3R,4R)-3,4-Dihydroxypyrrolidin-1-yl]-4-oxo-N-[1-(trifluoromethoxy)butan-2-yl]-1-(2,4,6-trifluorophenyl)-1,4-dihydro-1,8-naphthyridine-3-carboxamide] | – | 7.89 | 99.5% | – |
| CCC(NC(=O)c1cn(-c2c(F)cc(F)cc2F)c2nc(N3C[C@@H](O)CC3=O)ccc2c1=O)C(F)(F)C(F)(F)F (mixture of isomers) [Example 519, 7-[(4S)-4-Hydroxy-2-oxopyrrolidin-1-yl]-4-oxo-N-[1,1,1,2,2-pentafluoropentan-3-yl]-1-(2,4,6-trifluorophenyl)-1,4-dihydro-1,8-naphthyridine-3-carboxamide] | – | 8.52 | 96.7% | – |
